Experimental data as given in patent publication US12478617B2, “Lipidated peptide inhibitors of interleukin-23 receptor” (JANSSEN BIOTECH, INC., priority 2021, dated 2025).
Starred links: 1 amine or outer side, 2 acyl side, 3 side chain; linkers in the order of their positions; H or OH if unused. Positions of bridges follow the written chain, without caps; N, C: chain ends. Non-standard residues stand in square brackets, D forms with d. Residues, ends and D or L forms follow the SMILES beside them. Groups on a side chain read outwards from the residue. *: point of attachment. Decanoyl(10-(4-HOOC-PhO)) = O=C(O)c1ccc(OCCCCCCCCCC(=O)*)cc1; Trp(7-Me) = Cc1cccc2c(C[C@H](N)C(=O)O)c[nH]c12; C20 diacid = O=C(O)CCCCCCCCCCCCCCCCCCC(=O)*; C18 diacid = O=C(O)CCCCCCCCCCCCCCCCC(=O)*; C16 diacid = O=C(O)CCCCCCCCCCCCCCC(=O)*; γGlu = O=C(O)[C@H](CCC(=O)[*:2])N[*:1]; 2Nal = N[C@@H](Cc1ccc2ccccc2c1)C(=O)O; AEF = NCCOc1ccc(C[C@H](N)C(=O)O)cc1; PEG6 = NCCOCCOCCOCCOCCOCCOCCC(=O)O; 3Pal = N[C@@H](Cc1cccnc1)C(=O)O; Pen = CC(C)(S)[C@H](N)C(=O)O; Thp = NC1(C(=O)O)CCOCC1; AEEA = NCCOCCOCC(=O)O; Sar = CNCC(=O)O

What follows are molecules tested against T1, IL-23R (Homo sapiens, UniProt Q5VWK5) (assay: IL23R Reporter Assay).
T1 construct: HEK293 cells containing IL-23R, IL-12RP31 and a firefly luciferase reporter gene driven by a STAT-inducible promoter (Promega); host or cells: HEK293
T1 sequence (Q5VWK5 24-629): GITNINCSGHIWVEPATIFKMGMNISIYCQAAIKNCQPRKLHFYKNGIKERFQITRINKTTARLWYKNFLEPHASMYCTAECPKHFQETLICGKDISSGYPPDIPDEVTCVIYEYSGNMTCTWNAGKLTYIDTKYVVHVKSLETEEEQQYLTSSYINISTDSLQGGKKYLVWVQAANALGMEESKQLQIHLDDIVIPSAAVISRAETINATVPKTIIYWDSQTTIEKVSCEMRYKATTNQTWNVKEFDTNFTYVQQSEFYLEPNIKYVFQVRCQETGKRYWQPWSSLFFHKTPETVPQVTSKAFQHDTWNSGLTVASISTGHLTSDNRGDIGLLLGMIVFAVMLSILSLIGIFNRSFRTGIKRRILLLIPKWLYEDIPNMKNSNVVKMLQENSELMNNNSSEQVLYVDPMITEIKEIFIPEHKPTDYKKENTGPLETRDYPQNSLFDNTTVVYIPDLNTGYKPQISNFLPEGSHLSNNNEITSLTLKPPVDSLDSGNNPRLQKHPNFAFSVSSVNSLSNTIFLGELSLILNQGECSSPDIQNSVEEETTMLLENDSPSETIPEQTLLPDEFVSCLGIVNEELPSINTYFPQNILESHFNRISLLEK
Type: cell-based
Procedure, shortened: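 Reporter cells read out IL-23-driven STAT3 activation; compounds were serially diluted in DMSO. After 5 h at 37 °C, 5% CO2, cells were brought to 20 °C and luminescence was measured with BioGlo reagent.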

Row | Structure (SMILES) | IC50 [nM]
1 | CC(=O)NCCCC[C@@H]1NC(=O)[C@H](Cc2c[nH]c3c(C)cccc23)NC(=O)[C@H]([C@@H](C)O)NC(=O)[C@H](CC(N)=O)NC(=O)[C@@H](NC(C)=O)C(C)(C)SSC(C)(C)[C@@H](C(=O)N[C@@H](Cc2ccc(OCCN)cc2)C(=O)N[C@@H](Cc2ccc3ccccc3c2)C(=O)NC2(C(=O)N[C@@H](CCCCNC(=O)COCCOCCNC(=O)COCCOCCNC(=O)CC[C@H](NC(=O)CCCCCCCCCCCCCCCCCCC(=O)O)C(=O)O)C(=O)N[C@@H](CC(N)=O)C(=O)N[C@@H](Cc3cccnc3)C(=O)N(C)CC(N)=O)CCOCC2)NC1=O [Example 36, MeCO-Pen*-N-T-7MeW-K(Ac)-Pen*-AEF-2Nal-THP-K(PEG2PEG2gEC20OH)-N-3Pya-Sar-CONH2] | 0.14
2 | CC(=O)NCCCC[C@@H]1NC(=O)[C@H](Cc2c[nH]c3c(C)cccc23)NC(=O)[C@H]([C@@H](C)O)NC(=O)[C@H](CC(N)=O)NC(=O)[C@@H](NC(C)=O)C(C)(C)SSC(C)(C)[C@@H](C(=O)N[C@@H](Cc2ccc(OCCN)cc2)C(=O)N[C@@H](Cc2ccc3ccccc3c2)C(=O)NC2(C(=O)N[C@@H](CCCCNC(=O)CCOCCOCCOCCOCCOCCOCCNC(=O)CCOCCOCCOCCOCCOCCOCCNC(=O)CC[C@H](NC(=O)CCCCCCCCCCCCCCC(=O)O)C(=O)O)C(=O)N[C@@H](CC(N)=O)C(=O)N[C@@H](Cc3cccnc3)C(=O)N(C)CC(N)=O)CCOCC2)NC1=O [Example 42, MeCO-Pen*-N-T-7MeW-K(Ac)-Pen*-AEF-2Nal-THP-K(PEG6PEG6gEC16OH)-N-3Pya-Sar-CONH2] (Ac-[Pen]NT[Trp(7-Me)]K(Ac)[Pen][AEF][2Nal][Thp]K([PEG6-PEG6-γGlu-C16 diacid])N[3Pal][Sar]-NH2; disulfide 1-6) | 0.029
3 | CC(=O)NCCCC[C@@H]1NC(=O)[C@H](Cc2c[nH]c3c(C)cccc23)NC(=O)[C@H]([C@@H](C)O)NC(=O)[C@H](CC(N)=O)NC(=O)[C@@H](NC(C)=O)C(C)(C)SSC(C)(C)[C@@H](C(=O)N[C@@H](Cc2ccc(OCCN)cc2)C(=O)N[C@@H](Cc2ccc3ccccc3c2)C(=O)NC2(C(=O)N[C@@H](CCCCNC(=O)COCCOCCNC(=O)CC[C@H](NC(=O)CCCCCCCCCCCCCCC(=O)O)C(=O)O)C(=O)N[C@@H](CC(N)=O)C(=O)N[C@@H](Cc3cccnc3)C(=O)N(C)CC(N)=O)CCOCC2)NC1=O [Example 34, MeCO-Pen*-N-T-7MeW-K(Ac)-Pen*-AEF-2Nal-THP-K(PEG2gEC16OH)-N-3Pya-Sar-CONH2] (Ac-[Pen]NT[Trp(7-Me)]K(Ac)[Pen][AEF][2Nal][Thp]K([AEEA-γGlu-C16 diacid])N[3Pal][Sar]-NH2; disulfide 1-6) | 0.065
4 | CC(=O)NCCCC[C@@H]1NC(=O)[C@H](Cc2c[nH]c3c(C)cccc23)NC(=O)[C@H]([C@@H](C)O)NC(=O)[C@H](CC(N)=O)NC(=O)[C@@H](NC(C)=O)C(C)(C)SSC(C)(C)[C@@H](C(=O)N[C@@H](Cc2ccc(OCCN)cc2)C(=O)N[C@@H](Cc2ccc3ccccc3c2)C(=O)NC2(C(=O)N[C@@H](CCCCNC(=O)CC[C@H](NC(=O)CCCCCCCCCCCCCCC(=O)O)C(=O)O)C(=O)N[C@@H](CC(N)=O)C(=O)N[C@@H](Cc3cccnc3)C(=O)N(C)CC(N)=O)CCOCC2)NC1=O [Example 29, MeCO-Pen*-N-T-7MeW-K(Ac)-Pen*-AEF-2Nal-THP-K(gEC16OH)-N-3Pya-Sar-CONH2] (Ac-[Pen]NT[Trp(7-Me)]K(Ac)[Pen][AEF][2Nal][Thp]K([γGlu-C16 diacid])N[3Pal][Sar]-NH2; disulfide 1-6) | 0.06
5 | CC(=O)NCCCC[C@@H]1NC(=O)[C@H](Cc2c[nH]c3c(C)cccc23)NC(=O)[C@H]([C@@H](C)O)NC(=O)[C@H](CC(N)=O)NC(=O)[C@@H](NC(C)=O)C(C)(C)SSC(C)(C)[C@@H](C(=O)N[C@@H](Cc2ccc(OCCN)cc2)C(=O)N[C@@H](Cc2ccc3ccccc3c2)C(=O)NC2(C(=O)N[C@@H](CCCCNC(=O)COCCOCCNC(=O)COCCOCCNC(=O)[C@@H]3CCCN3C(=O)CC[C@H](NC(=O)CCCCCCCCCCCCCCCCC(=O)O)C(=O)O)C(=O)N[C@@H](CC(N)=O)C(=O)N[C@@H](Cc3cccnc3)C(=O)N(C)CC(N)=O)CCOCC2)NC1=O [Example 105, MeCO-Pen*-N-T-7MeW-K(Ac)-Pen*-AEF-2Nal-THP-K(PEG2PEG2PgEC18OH)-N-3Pya-Sar-CONH2] (Ac-[Pen]NT[Trp(7-Me)]K(Ac)[Pen][AEF][2Nal][Thp]K([AEEA-AEEA-Pro-γGlu-C18 diacid])N[3Pal][Sar]-NH2; disulfide 1-6) | 0.089
6 | CC(=O)NCCCC[C@@H]1NC(=O)[C@H](Cc2c[nH]c3c(C)cccc23)NC(=O)[C@H]([C@@H](C)O)NC(=O)[C@H](CC(N)=O)NC(=O)[C@@H](NC(C)=O)C(C)(C)SSC(C)(C)[C@@H](C(=O)N[C@@H](Cc2ccc(OCCN)cc2)C(=O)N[C@@H](Cc2ccc3ccccc3c2)C(=O)NC2(C(=O)N[C@@H](CCCCNC(=O)CCOCCOCCOCCOCCOCCOCCNC(=O)CCOCCOCCOCCOCCOCCOCCNC(=O)CC[C@H](NC(=O)CCCCCCCCCCCCCCCCC(=O)O)C(=O)O)C(=O)N[C@@H](CC(N)=O)C(=O)N[C@@H](Cc3cccnc3)C(=O)N(C)CC(N)=O)CCOCC2)NC1=O [Example 43, MeCO-Pen*-N-T-7MeW-K(Ac)-Pen*-AEF-2Nal-THP-K(PEG6PEG6gEC18OH)-N-3Pya-Sar-CONH2] (Ac-[Pen]NT[Trp(7-Me)]K(Ac)[Pen][AEF][2Nal][Thp]K([PEG6-PEG6-γGlu-C18 diacid])N[3Pal][Sar]-NH2; disulfide 1-6) | 0.049
7 | CC(=O)NCCCC[C@@H]1NC(=O)[C@H](Cc2c[nH]c3c(C)cccc23)NC(=O)[C@H]([C@@H](C)O)NC(=O)[C@H](CC(N)=O)NC(=O)[C@@H](NC(=O)[C@@H](CCCNC(=N)N)NC(C)=O)C(C)(C)SSC(C)(C)[C@@H](C(=O)N[C@@H](Cc2ccc(OCCN)cc2)C(=O)N[C@@H](Cc2ccc3ccccc3c2)C(=O)NC2(C(=O)N[C@@H](CCCCNC(=O)COCCOCCNC(=O)COCCOCCNC(=O)[C@@H]3CCCN3C(=O)[C@@H]3CCCN3C(=O)[C@@H]3CCCN3C(=O)CCCCCCCCCCCCCCCCC(=O)O)C(=O)N[C@@H](CC(N)=O)C(=O)N[C@@H](Cc3cccnc3)C(=O)N(C)CC(N)=O)CCOCC2)NC1=O [Example 65, MeCO-r-Pen*-N-T-7MeW-K(Ac)-Pen*-AEF-2Nal-THP-K(PEG2PEG2PPPC18OH)-N-3Pya-Sar-CONH2] (Ac-[dR][Pen]NT[Trp(7-Me)]K(Ac)[Pen][AEF][2Nal][Thp]K([AEEA-AEEA-Pro-Pro-Pro-C18 diacid])N[3Pal][Sar]-NH2; disulfide 2-7) | 0.19
8 | CC(=O)NCCCC[C@@H]1NC(=O)[C@H](Cc2c[nH]c3c(C)cccc23)NC(=O)[C@H]([C@@H](C)O)NC(=O)[C@H](CC(N)=O)NC(=O)[C@@H](NC(C)=O)C(C)(C)SSC(C)(C)[C@@H](C(=O)N[C@@H](Cc2ccc(OCCN)cc2)C(=O)N[C@@H](Cc2ccc3ccccc3c2)C(=O)NC2(C(=O)N[C@@H](CCCCNC(=O)COCCOCCNC(=O)COCCOCCNC(=O)CC[C@H](NC(=O)CCCCCCCCCOc3ccc(C(=O)O)cc3)C(=O)O)C(=O)N[C@@H](CC(N)=O)C(=O)N[C@@H](Cc3cccnc3)C(=O)N(C)CC(N)=O)CCOCC2)NC1=O [Example 111, MeCO-Pen*-N-T-7MeW-K(Ac)-Pen*-AEF-2Nal-THP-K(PEG2PEG2gEpXOH)-N-3Pya-Sar-CONH2] (Ac-[Pen]NT[Trp(7-Me)]K(Ac)[Pen][AEF][2Nal][Thp]K([AEEA-AEEA-γGlu-Decanoyl(10-(4-HOOC-PhO))])N[3Pal][Sar]-NH2; disulfide 1-6) | 0.048
9 | CC(=O)NCCCC[C@@H]1NC(=O)[C@H](Cc2c[nH]c3c(C)cccc23)NC(=O)[C@H]([C@@H](C)O)NC(=O)[C@H](CC(N)=O)NC(=O)[C@@H](NC(C)=O)C(C)(C)SSC(C)(C)[C@@H](C(=O)N[C@@H](Cc2ccc(OCCN)cc2)C(=O)N[C@@H](Cc2ccc3ccccc3c2)C(=O)NC2(C(=O)N[C@@H](CCCCNC(=O)CC[C@H](NC(=O)CCCCCCCCCCCCCCCCCCC(=O)O)C(=O)O)C(=O)N[C@@H](CC(N)=O)C(=O)N[C@@H](Cc3cccnc3)C(=O)N(C)CC(N)=O)CCOCC2)NC1=O [Example 89, MeCO-Pen*-N-T-7MeW-K(Ac)-Pen*-AEF-2Nal-THP-K(gEC20OH)-N-3Pya-Sar-CONH2] (Ac-[Pen]NT[Trp(7-Me)]K(Ac)[Pen][AEF][2Nal][Thp]K([γGlu-C20 diacid])N[3Pal][Sar]-NH2; disulfide 1-6) | 0.34
10 | CC(=O)NCCCC[C@@H]1NC(=O)[C@H](Cc2c[nH]c3c(C)cccc23)NC(=O)[C@H]([C@@H](C)O)NC(=O)[C@H](CC(N)=O)NC(=O)[C@@H](NC(=O)[C@@H](CCCCNC(=O)CCOCCOCCOCCOCCOCCOCCNC(=O)CC[C@H](NC(=O)CCCCCCCCCCCCCCCCC(=O)O)C(=O)O)NC(C)=O)C(C)(C)SSC(C)(C)[C@@H](C(=O)N[C@@H](Cc2ccc(OCCN)cc2)C(=O)N[C@@H](Cc2ccc3ccccc3c2)C(=O)NC2(C(=O)N[C@@H](CCCCNC(C)=O)C(=O)N[C@@H](CC(N)=O)C(=O)N[C@@H](Cc3cccnc3)C(=O)N(C)CC(N)=O)CCOCC2)NC1=O [Example 60, MeCO-k(PEG6 gE C18OH)-Pen*-N-T-7MeW-K(Ac)-Pen*-AEF-2Nal-THP-K(Ac)-N-3Pya-Sar-CONH2] (Ac-[dK]([PEG6-γGlu-C18 diacid])[Pen]NT[Trp(7-Me)]K(Ac)[Pen][AEF][2Nal][Thp]K(Ac)N[3Pal][Sar]-NH2; disulfide 2-7) | 0.042
